In brackets after ≈: the same amount, converted by molar mass.
Legend:
Staphylococcus aureus [1] = experiment: Antimicrobial activity against methicillin-resistant Staphylococcus aureus N315 after 24 hrs by microbroth dilution method; assay type: functional; details: N315, 24 h
Staphylococcus aureus [2] = experiment: Antimicrobial activity against Staphylococcus aureus ATCC 25923 after 24 hrs by microbroth dilution method; assay type: functional; details: ATCC 25923, 24 h
Bacillus spizizenii = experiment: Antimicrobial activity against Bacillus subtilis ATCC 6633 after 24 hrs by microbroth dilution method; assay type: functional; details: ATCC 6633, 24 h
Micrococcus luteus = experiment: Antimicrobial activity against Micrococcus luteus ATCC 4698 after 24 hrs by microbroth dilution method; assay type: functional; details: ATCC 4698, 24 h
Escherichia coli [3] = experiment: Antimicrobial activity against Escherichia coli DH52 after 24 hrs by microbroth dilution method; assay type: functional; details: DH52, 24 h
Escherichia coli [4] = experiment: Antimicrobial activity against Escherichia coli JM109 after 24 hrs by microbroth dilution method; assay type: functional; details: JM109, 24 h
[5] = Antimicrobial activity against Bacillus proteus ATCC 13315 after 24 hrs by microbroth dilution method; assay type: functional; details: ATCC 13315, 24 h
Salmonella typhi = experiment: Antimicrobial activity against Bacillus typhi after 24 hrs by microbroth dilution method; assay type: functional, Salmonella enterica subsp. enterica serovar Typhi; details: Salmonella enterica
Candida albicans = experiment: Antimicrobial activity against Candida albicans ATCC 10231 after 24 hrs by microbroth dilution method; assay type: functional; details: ATCC 10231, 24 h
Candida = experiment: Antimicrobial activity against Candida mycoderma ATCC 9888 after 24 hrs by microbroth dilution method; assay type: functional; details: ATCC 9888, 24 h
Saccharomyces cerevisiae = experiment: Antimicrobial activity against Saccharomyces cerevisiae after 24 hrs by microbroth dilution method; assay type: functional
Aspergillus flavus = experiment: Antimicrobial activity against Aspergillus flavus ATCC 204304 after 24 hrs by microbroth dilution method; assay type: functional; details: ATCC 204304, 24 h

Row | Structure (SMILES) | MIC (Staphylococcus aureus [1]) [µg/mL] | MIC (Staphylococcus aureus [2]) [µg/mL] | MIC (Bacillus spizizenii) [µg/mL] | MIC (Micrococcus luteus) [µg/mL] | MIC (Escherichia coli [3]) [µg/mL] | MIC (Escherichia coli [4]) [µg/mL] | MIC [5] [µg/mL] | MIC (Salmonella typhi) [µg/mL] | MIC (Candida albicans) [µg/mL] | MIC (Candida) [µg/mL] | MIC (Saccharomyces cerevisiae) [µg/mL] | MIC (Aspergillus flavus) [µg/mL]
1 | CCCCCCCCCCCCn1c(=O)c(F)cn(Cc2nc3ccccc3n2CCCCCCCCCCCC)c1=O | > 512 | > 512 | 512 (≈ 858 µM) | 512 (≈ 858 µM) | 512 (≈ 858 µM) | 256 (≈ 429 µM) | 512 (≈ 858 µM) | 512 (≈ 858 µM) | 256 (≈ 429 µM) | 32 (≈ 53.6 µM) | > 512 | 512 (≈ 858 µM)
2 | O=c1[nH]c(=O)n(Cc2nc3cc(F)ccc3[nH]2)cc1F | 16 (≈ 57.5 µM) | 8 (≈ 28.8 µM) | 128 (≈ 460 µM) | 16 (≈ 57.5 µM) | 32 (≈ 115 µM) | 128 (≈ 460 µM) | 16 (≈ 57.5 µM) | 32 (≈ 115 µM) | 2 (≈ 7.19 µM) | 128 (≈ 460 µM) | 8 (≈ 28.8 µM) | 128 (≈ 460 µM)
3 | O=c1c(F)cn(Cc2nc3ccccc3n2Cc2ccc(F)cc2)c(=O)n1Cc1ccc(F)cc1 | 512 (≈ 1070 µM) | > 512 | > 512 | > 512 | > 512 | > 512 | > 512 | 512 (≈ 1070 µM) | > 512 | > 512 | > 512 | 512 (≈ 1070 µM)
4 | CCCn1c(Cn2cc(F)c(=O)[nH]c2=O)nc2ccccc21 | 16 (≈ 52.9 µM) | 16 (≈ 52.9 µM) | 16 (≈ 52.9 µM) | 16 (≈ 52.9 µM) | 64 (≈ 212 µM) | 64 (≈ 212 µM) | 64 (≈ 212 µM) | 64 (≈ 212 µM) | 2 (≈ 6.62 µM) | 16 (≈ 52.9 µM) | 8 (≈ 26.5 µM) | 32 (≈ 106 µM)
5 | CCCCCn1c(=O)c(F)cn(Cc2nc3ccccc3n2CCCCC)c1=O | 16 (≈ 40 µM) | 16 (≈ 40 µM) | 512 (≈ 1280 µM) | 32 (≈ 79.9 µM) | 512 (≈ 1280 µM) | 16 (≈ 40 µM) | 8 (≈ 20 µM) | 512 (≈ 1280 µM) | > 512 | 8 (≈ 20 µM) | 8 (≈ 20 µM) | > 512
6 | O=c1c(F)cn(Cc2nc3ccccc3n2Cc2ccccc2F)c(=O)n1Cc1ccccc1F | 512 (≈ 1070 µM) | 16 (≈ 33.6 µM) | 128 (≈ 269 µM) | 512 (≈ 1070 µM) | 128 (≈ 269 µM) | 128 (≈ 269 µM) | 512 (≈ 1070 µM) | 512 (≈ 1070 µM) | > 512 | 512 (≈ 1070 µM) | 128 (≈ 269 µM) | > 512
7 | CCCn1c(=O)c(F)cn(Cc2nc3ccccc3n2CCC)c1=O | 64 (≈ 186 µM) | 32 (≈ 92.9 µM) | 64 (≈ 186 µM) | 32 (≈ 92.9 µM) | 32 (≈ 92.9 µM) | 16 (≈ 46.5 µM) | 128 (≈ 372 µM) | 64 (≈ 186 µM) | 64 (≈ 186 µM) | 32 (≈ 92.9 µM) | 128 (≈ 372 µM) | 64 (≈ 186 µM)
8 | O=c1[nH]c(=O)n(Cc2nc3ccccc3[nH]2)cc1F | 128 (≈ 492 µM) | 128 (≈ 492 µM) | 64 (≈ 246 µM) | 64 (≈ 246 µM) | 64 (≈ 246 µM) | 32 (≈ 123 µM) | 16 (≈ 61.5 µM) | 32 (≈ 123 µM) | 32 (≈ 123 µM) | 64 (≈ 246 µM) | 64 (≈ 246 µM) | 128 (≈ 492 µM)
9 | CCCCCCCCCCCCn1c(Cn2cc(F)c(=O)[nH]c2=O)nc2ccccc21 | > 512 | > 512 | > 512 | > 512 | > 512 | > 512 | > 512 | > 512 | > 512 | 512 (≈ 1190 µM) | 64 (≈ 149 µM) | > 512
10 | CCn1c(=O)c(F)cn(Cc2nc3ccccc3n2CC)c1=O | 64 (≈ 202 µM) | 32 (≈ 101 µM) | 32 (≈ 101 µM) | 32 (≈ 101 µM) | 32 (≈ 101 µM) | 16 (≈ 50.6 µM) | 32 (≈ 101 µM) | 64 (≈ 202 µM) | 64 (≈ 202 µM) | 32 (≈ 101 µM) | 32 (≈ 101 µM) | 64 (≈ 202 µM)
11 | CCn1cc(C(=O)O)c(=O)c2cc(F)c(N3CCNCC3)cc21 [NORFLOXACIN] | 8 (≈ 25.1 µM) | 2 (≈ 6.26 µM) | 4 (≈ 12.5 µM) | 2 (≈ 6.26 µM) | 1 (≈ 3.13 µM) | 1 (≈ 3.13 µM) | 8 (≈ 25.1 µM) | 4 (≈ 12.5 µM) |  |  |  | 
12 | OC(Cn1cncn1)(Cn1cncn1)c1ccc(F)cc1F [FLUCONAZOLE] |  |  |  |  |  |  |  |  | 1 (≈ 3.27 µM) | 4 (≈ 13.1 µM) | 16 (≈ 52.2 µM) | 256 (≈ 836 µM)
13 | O=c1c(F)cn(Cc2nc3ccccc3n2Cc2ccccc2Cl)c(=O)n1Cc1ccccc1Cl | > 512 | > 512 | > 512 | > 512 | > 512 | > 512 | > 512 | 512 (≈ 1010 µM) | 512 (≈ 1010 µM) | 512 (≈ 1010 µM) | > 512 | 512 (≈ 1010 µM)
14 | O=c1c(F)cn(Cc2nc3ccccc3n2Cc2ccc(Cl)cc2)c(=O)n1Cc1ccc(Cl)cc1 | > 512 | > 512 | > 512 | > 512 | > 512 | > 512 | > 512 | 512 (≈ 1010 µM) | 4 (≈ 7.85 µM) | > 512 | > 512 | > 512
15 | CCCCCCCCn1c(Cn2cc(F)c(=O)[nH]c2=O)nc2ccccc21 | 512 (≈ 1370 µM) | 512 (≈ 1370 µM) | 512 (≈ 1370 µM) | 512 (≈ 1370 µM) | 64 (≈ 172 µM) | 256 (≈ 687 µM) | 512 (≈ 1370 µM) | 512 (≈ 1370 µM) | 32 (≈ 85.9 µM) | 64 (≈ 172 µM) | 32 (≈ 85.9 µM) | 32 (≈ 85.9 µM)
16 | CCCCCCCCn1c(=O)c(F)cn(Cc2nc3ccccc3n2CCCCCCCC)c1=O | > 512 | > 512 | 512 (≈ 1060 µM) | 512 (≈ 1060 µM) | 512 (≈ 1060 µM) | 512 (≈ 1060 µM) | > 512 | 512 (≈ 1060 µM) | 64 (≈ 132 µM) | 512 (≈ 1060 µM) | > 512 | 512 (≈ 1060 µM)
17 | O=c1c(F)cn(Cc2nc3ccccc3n2Cc2cccc(Cl)c2)c(=O)n1Cc1cccc(Cl)c1 | 128 (≈ 251 µM) | 512 (≈ 1010 µM) | 64 (≈ 126 µM) | 128 (≈ 251 µM) | 16 (≈ 31.4 µM) | 128 (≈ 251 µM) | 64 (≈ 126 µM) | 64 (≈ 126 µM) | 64 (≈ 126 µM) | 64 (≈ 126 µM) | 64 (≈ 126 µM) | 64 (≈ 126 µM)
18 | O=c1c(F)cn(Cc2nc3ccccc3n2Cc2ccccc2)c(=O)n1Cc1ccccc1 | > 512 | > 512 | 64 (≈ 145 µM) | 128 (≈ 291 µM) | > 512 | > 512 | > 512 | 128 (≈ 291 µM) | 128 (≈ 291 µM) | 128 (≈ 291 µM) | > 512 | 64 (≈ 145 µM)

— ChEMBL document CHEMBL3808392, “Design, synthesis and biological evaluation of 5-fluorouracil-derived benzimidazoles as novel type of potential antimicrobial agents” (2016)
